Source: patent publication US11299503B2, “Compound, coating composition comprising the same, organic light emitting device using the same and method for manufacturing the same” (LG Chem, Ltd., priority 2018, dated 2022)

Assay: Solubility in toluene, precipitate check by tyndall effect
Assay type: physicochemical
Details: toluene 100 ml, left 30 minutes at room temperature (25° C.), dissolved amount measured
Procedure: In addition, Compound BD12, Compound BD24, Compound BD30, Compound BD38 and Compound C used in Example 1 to Example 4 and Comparative Example 1 were each introduced to a solvent (toluene 100 ml), and then left unattended for 30 minutes at room temperature (25° C.). After that, laser was passed through the solution to determine whether precipitates were formed through a […] effect, and the dissolved amount was measured.

`c1ccc([Si](c2ccccc2)(c2ccccc2)c2cccc(-c3ccccc3N(c3cccc([Si](c4ccccc4)(c4ccccc4)c4ccccc4)c3)c3cc4c5ccccc5c(N(c5cccc([Si](c6ccccc6)(c6ccccc6)c6ccccc6)c5)c5ccccc5-c5cccc([Si](c6ccccc6)(c6ccccc6)c6ccccc6)c5)cc4c4ccccc34)c2)cc1` [BD12] and `c1ccc([Si](c2ccccc2)(c2ccccc2)c2cccc(-c3ccccc3N(c3ccc(-c4cc5c6ccccc6c(-c6ccc(N(c7cccc([Si](c8ccccc8)(c8ccccc8)c8ccccc8)c7)c7ccccc7-c7cccc([Si](c8ccccc8)(c8ccccc8)c8ccccc8)c7)cc6)cc5c5ccccc45)cc3)c3cccc([Si](c4ccccc4)(c4ccccc4)c4ccccc4)c3)c2)cc1` [BD24] are the same in Solubility: 10 wt % for the first, 10 wt % for the second.

`CC(C)c1ccc([Si](c2ccc(C(C)C)cc2)(c2ccc(C(C)C)cc2)c2ccc(N(c3cccc(-c4cccc([Si](c5ccc(C(C)C)cc5)(c5ccc(C(C)C)cc5)c5ccc(C(C)C)cc5)c4)c3)c3cc4c5ccccc5c(N(c5ccc([Si](c6ccc(C(C)C)cc6)(c6ccc(C(C)C)cc6)c6ccc(C(C)C)cc6)cc5)c5cccc(-c6cccc([Si](c7ccc(C(C)C)cc7)(c7ccc(C(C)C)cc7)c7ccc(C(C)C)cc7)c6)c5)cc4c4ccccc34)cc2)cc1` [BD30] and `CC(C)c1ccc([Si](c2ccc(C(C)C)cc2)(c2ccc(C(C)C)cc2)c2ccc(N(c3ccc(-c4cc5c6ccccc6c(-c6ccc(N(c7ccc([Si](c8ccc(C(C)C)cc8)(c8ccc(C(C)C)cc8)c8ccc(C(C)C)cc8)cc7)c7cccc(-c8cccc([Si](c9ccc(C(C)C)cc9)(c9ccc(C(C)C)cc9)c9ccc(C(C)C)cc9)c8)c7)cc6)cc5c5ccccc45)cc3)c3cccc(-c4cccc([Si](c5ccc(C(C)C)cc5)(c5ccc(C(C)C)cc5)c5ccc(C(C)C)cc5)c4)c3)cc2)cc1` [BD38] are the same in Solubility: 15 wt % for the first, 15 wt % for the second.

Compound `c1ccc(-c2ccc(N(c3ccccc3)c3cc4c5ccccc5c(N(c5ccccc5)c5ccc(-c6ccccc6)cc5)cc4c4ccccc34)cc2)cc1` [Compound C, reference compound] has a Solubility of 0.1 wt %.
